Measured values from patent US11155523B2, “Biphenyl compound as CCR2/CCR5 receptor antagonist” (Medshine Discovery Inc., priority 2016, dated 2021).

Tests used:
[1] = molecular target: T1, CCR5 (Homo sapiens, UniProt P51681); assay: CCR5 in vitro test: intracellular calcium signal detected by FLIPR; assay type: cell-based; conditions: HEK293 cells expressing CCR5, agonist RANTES at EC80, calcium signal
T1 construct: expressed in transfected cells; host or cells: HEK293, clone C13, passage P4
Outline: (§1)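 Receptor-expressing cells loaded with Fluo-4 Direct and probenecid (2.5 mM final), then preincubated with compounds (11-point 1:3 series) before challenge at EC80 of agonist (MCP-1 for CCR2, RANTES for CCR5). FLIPR calcium max−min signal; IC50 fitted.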

[2] = molecular target: T2, CCR2 (Homo sapiens, UniProt P41597); assay: CCR2 in vitro test: intracellular calcium signal detected by FLIPR; assay type: cell-based; conditions: HEK293 cells expressing CCR2, agonist MCP-1 at EC80, calcium signal
T2 construct: expressed in transfected cells; host or cells: HEK293, clone C7, passage P6
T2 sequence (P41597 whole entry, species assumed): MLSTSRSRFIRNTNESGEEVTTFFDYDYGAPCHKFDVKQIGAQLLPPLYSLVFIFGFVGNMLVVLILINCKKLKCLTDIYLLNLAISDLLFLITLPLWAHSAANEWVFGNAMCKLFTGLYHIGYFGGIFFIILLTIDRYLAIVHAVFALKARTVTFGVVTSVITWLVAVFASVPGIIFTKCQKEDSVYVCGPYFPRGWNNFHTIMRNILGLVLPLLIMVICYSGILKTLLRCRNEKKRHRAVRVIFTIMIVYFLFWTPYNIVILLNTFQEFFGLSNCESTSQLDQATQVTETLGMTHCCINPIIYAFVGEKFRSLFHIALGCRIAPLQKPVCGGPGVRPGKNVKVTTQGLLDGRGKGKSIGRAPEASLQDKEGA
Outline: as §1

[3] = test system: human liver microsomal cytochrome P450 isoenzymes; assay: Inhibition of human liver microsomal cytochrome P450 isoenzymes, overall conclusion; assay type: in vitro ADME; conditions: human liver microsomes
Experimental: (§2) Experimental Example 4 Inhibition Effect on the Activity of Human Liver Microsomal Cytochrome P450 Isoezymes (CYP1A2, CYP2C9, CYP2C19, CYP2D6 and CYP3A4)
(§3) A total of 5 specific probe substrates for CYP's five isozymes, Phenacetin (CYP1A2), Diclofenac (CYP2C9), […] (S)-Mephenytoin, CYP2C19), Dextromethorphan (CYP2D6) and Midazolam (CYP3A4) were incubated with human liver microsomes and test compounds, respectively, and reduced nicotinamide adenine dinucleotide phosphate (NADPH) was added to initiate the reaction. After the reaction, the sample was processed and liquid chromatography tandem mass spectrometry (LC-MS/MS) was used to quantitatively detect the […] metabolites produced by the specific substrate, Acetaminophen and 4′-hydroxydiclofenac, 4′-hydroxymephenytoin, Dextrorphan and 1′-hydroxymidazolam, in order to calculate the corresponding half maximal inhibitory concentration (IC50).

[4] = molecular target: T3, CYP2C9 (Homo sapiens, UniProt P11712); assay: Inhibition of human liver microsomal CYP2C9 (diclofenac probe); assay type: in vitro ADME; conditions: human liver microsomes
T3 construct: from tissue; host or cells: human liver microsomes
T3 sequence (P11712 whole entry): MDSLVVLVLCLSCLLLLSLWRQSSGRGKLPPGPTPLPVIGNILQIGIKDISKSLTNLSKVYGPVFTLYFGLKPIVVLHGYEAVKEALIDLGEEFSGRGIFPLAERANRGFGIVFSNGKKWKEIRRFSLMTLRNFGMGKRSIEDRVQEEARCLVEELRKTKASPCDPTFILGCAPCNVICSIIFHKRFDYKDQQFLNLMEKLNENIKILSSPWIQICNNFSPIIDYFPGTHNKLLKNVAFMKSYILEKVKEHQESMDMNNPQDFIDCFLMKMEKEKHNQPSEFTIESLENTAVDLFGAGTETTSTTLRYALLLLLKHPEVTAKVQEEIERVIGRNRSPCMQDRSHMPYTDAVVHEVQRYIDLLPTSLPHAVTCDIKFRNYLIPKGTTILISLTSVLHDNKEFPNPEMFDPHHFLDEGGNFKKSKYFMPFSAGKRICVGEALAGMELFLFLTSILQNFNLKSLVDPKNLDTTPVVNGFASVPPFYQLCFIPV
Experimental: as §2, §3

[5] = molecular target: T4, CYP3A4 (Homo sapiens, UniProt P08684); assay: Inhibition of human liver microsomal CYP3A4 (midazolam probe); assay type: in vitro ADME; conditions: human liver microsomes; for IC50: probe midazolam
T4 construct: from tissue; host or cells: human liver microsomes
T4 sequence (P08684 whole entry): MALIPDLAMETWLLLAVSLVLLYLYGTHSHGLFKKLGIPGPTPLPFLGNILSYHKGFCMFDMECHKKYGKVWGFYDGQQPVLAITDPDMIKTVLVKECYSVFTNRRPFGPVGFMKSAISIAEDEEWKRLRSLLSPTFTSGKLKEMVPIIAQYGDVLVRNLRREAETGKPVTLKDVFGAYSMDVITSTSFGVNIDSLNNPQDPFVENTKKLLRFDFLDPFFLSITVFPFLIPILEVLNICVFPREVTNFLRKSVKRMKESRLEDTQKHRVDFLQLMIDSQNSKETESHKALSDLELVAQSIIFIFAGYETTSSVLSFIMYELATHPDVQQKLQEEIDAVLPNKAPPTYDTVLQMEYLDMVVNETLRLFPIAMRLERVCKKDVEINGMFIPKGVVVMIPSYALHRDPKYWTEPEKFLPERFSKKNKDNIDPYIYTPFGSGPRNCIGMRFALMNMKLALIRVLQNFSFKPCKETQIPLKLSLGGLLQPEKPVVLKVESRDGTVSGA
Experimental: as §2, §3

[6] = molecular target: T5, CYP2C19 (Homo sapiens, UniProt P33261); assay: Inhibition of human liver microsomal CYP2C19 ((S)-mephenytoin probe); assay type: in vitro ADME; conditions: human liver microsomes
T5 construct: from tissue; host or cells: human liver microsomes
T5 sequence (P33261 whole entry): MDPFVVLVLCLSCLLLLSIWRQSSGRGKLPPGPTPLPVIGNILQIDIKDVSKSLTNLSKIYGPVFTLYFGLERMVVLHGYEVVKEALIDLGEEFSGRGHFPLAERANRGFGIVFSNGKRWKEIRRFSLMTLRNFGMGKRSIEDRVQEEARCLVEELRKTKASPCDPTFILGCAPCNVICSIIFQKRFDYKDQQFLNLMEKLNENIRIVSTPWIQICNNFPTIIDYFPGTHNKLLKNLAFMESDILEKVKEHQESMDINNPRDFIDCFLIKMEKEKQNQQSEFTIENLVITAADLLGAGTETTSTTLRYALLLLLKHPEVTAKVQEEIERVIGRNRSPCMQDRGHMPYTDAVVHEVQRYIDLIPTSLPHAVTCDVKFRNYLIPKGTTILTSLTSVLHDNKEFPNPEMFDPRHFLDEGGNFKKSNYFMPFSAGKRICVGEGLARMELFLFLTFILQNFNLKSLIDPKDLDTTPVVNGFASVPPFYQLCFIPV
Experimental: as §2, §3

[7] = Comparative pharmacokinetics study in rats; assay type: in vivo, SD male rats; conditions: rat; for clearance / half-life / bioavailability: male, Sprague-Dawley (SD), plasma; for clearance / half-life / Area Under a Curve (0-inf): intravenous injection 2 mg/kg; for bioavailability: oral 10 mg/kg vs intravenous 2 mg/kg; for Area Under a Curve (0-inf/0-last) / Peak time: oral 10 mg/kg
Experimental: Experimental Example 2: Comparative Pharmacokinetics Study in Rats
(§4) SD male rats were used as the test animals in this study. The drug concentrations in plasma of the rats by intravenous or oral administration of test compounds WX017, WX047, WX079, WX088 and reference compound at different time points were quantitatively determined by LC/MS/MS, which were used to evaluate the pharmacokinetic profile of the two test drugs in rats.
A clear solution of the test compound was injected into SD rats via the tail vein (overnight fasting, 7-10 weeks old), and the test compound was orally administered to the SD rats (overnight fasting, 7-10 weeks old). Approximately 200 μL of blood was collected from the jugular vein or tail vein of the animals 0.0833, 0.25, 0.5, 1, 2, 4, 6, 8 and 24 hours after administration, and was placed in an anticoagulant tube containing EDTA-K2. The plasma was collected by centrifugation at 3000 g for 15 minutes at 4° C. The plasma concentration was determined by LC-MS/MS. The pharmacokinetic parameters were calculated by the non-compartment model linear logarithmic trapezoidal method using WinNonlin™ Version 6.3 (Pharsight, Mountain View, Calif.) pharmacokinetic software.

[8] = molecular target: T6, CYP2D6 (Homo sapiens, UniProt P10635); assay: Inhibition of human liver microsomal CYP2D6 (dextromethorphan probe); assay type: in vitro ADME; conditions: human liver microsomes
T6 construct: from tissue; host or cells: human liver microsomes
T6 sequence (P10635 whole entry): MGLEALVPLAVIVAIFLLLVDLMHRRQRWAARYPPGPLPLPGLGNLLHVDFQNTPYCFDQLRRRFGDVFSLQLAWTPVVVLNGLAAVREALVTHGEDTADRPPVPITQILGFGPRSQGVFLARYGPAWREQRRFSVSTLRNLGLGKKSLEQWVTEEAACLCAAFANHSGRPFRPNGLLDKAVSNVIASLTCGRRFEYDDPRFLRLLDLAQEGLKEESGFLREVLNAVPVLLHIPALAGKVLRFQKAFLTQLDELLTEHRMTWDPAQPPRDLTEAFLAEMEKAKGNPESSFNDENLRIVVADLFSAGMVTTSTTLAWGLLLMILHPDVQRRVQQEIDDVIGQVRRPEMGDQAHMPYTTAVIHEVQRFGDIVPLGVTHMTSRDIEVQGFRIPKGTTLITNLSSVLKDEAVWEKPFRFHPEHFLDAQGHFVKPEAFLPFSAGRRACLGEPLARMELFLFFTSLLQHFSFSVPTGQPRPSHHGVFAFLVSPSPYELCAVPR
Experimental: as §2, §3

[9] = molecular target: T7, CYP1A2 (Homo sapiens, UniProt P05177); assay: Inhibition of human liver microsomal CYP1A2 (phenacetin probe); assay type: in vitro ADME; conditions: human liver microsomes
T7 construct: from tissue; host or cells: human liver microsomes
T7 sequence (P05177 1-516): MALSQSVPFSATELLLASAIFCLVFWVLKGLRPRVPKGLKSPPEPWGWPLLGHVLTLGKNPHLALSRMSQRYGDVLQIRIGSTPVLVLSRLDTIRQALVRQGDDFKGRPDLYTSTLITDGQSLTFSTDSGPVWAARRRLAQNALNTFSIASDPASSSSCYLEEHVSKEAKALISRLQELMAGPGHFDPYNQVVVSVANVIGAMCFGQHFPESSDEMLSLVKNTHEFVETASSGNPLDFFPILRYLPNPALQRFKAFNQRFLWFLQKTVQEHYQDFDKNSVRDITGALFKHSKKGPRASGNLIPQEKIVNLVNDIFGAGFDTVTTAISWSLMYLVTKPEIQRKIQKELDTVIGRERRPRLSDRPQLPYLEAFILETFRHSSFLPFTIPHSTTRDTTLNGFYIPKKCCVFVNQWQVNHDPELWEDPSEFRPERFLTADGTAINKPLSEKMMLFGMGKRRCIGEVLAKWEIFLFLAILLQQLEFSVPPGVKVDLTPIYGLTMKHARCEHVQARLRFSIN
Experimental: as §2, §3

[10] = Comparative pharmacokinetics study in cynomolgus monkeys; assay type: in vivo; conditions: cynomolgus monkey
Source text: Experimental Example 3: Comparative Pharmacokinetics Study in Cynomolgus Monkeys
as §4, with “Male cynomolgus monkeys” for “SD male rats”, “cynomolgus monkeys” for “rats”, “compound WX047” for “compounds WX017, WX047, WX079, WX088”, “cynomolgus monkeys.” for “rats.”
A clear solution of the test compound was injected into cynomolgus monkeys via t the cephalic or saphenous vein (overnight fasting, 2.5-7 kg), and the test compound was intragastrically administered to the cynomolgus monkeys (overnight fasting, 7-10 weeks old). Approximately 400 μL of blood was collected from the peripheral vein of the animals 0.0833, 0.25, 0.5, 1, 2, 4, 6, 8, 12 and 24 hours after administration, and transferred into an commercial centrifuge tube containing EDTA-K2*2H2O anticoagulation. The plasma was collected by centrifugation at 3000 g for 10 minutes at 4° C. The plasma concentration was determined by LC-MS/MS. The pharmacokinetic parameters were calculated by the non-compartment model linear logarithmic trapezoidal method using WinNonlin™ Version 6.3 (Pharsight, Mountain View, Calif.) pharmacokinetic software.

[11] = male, plasma, intravenous injection 1 mg/kg

T1 sequence (P51681 whole entry, species assumed): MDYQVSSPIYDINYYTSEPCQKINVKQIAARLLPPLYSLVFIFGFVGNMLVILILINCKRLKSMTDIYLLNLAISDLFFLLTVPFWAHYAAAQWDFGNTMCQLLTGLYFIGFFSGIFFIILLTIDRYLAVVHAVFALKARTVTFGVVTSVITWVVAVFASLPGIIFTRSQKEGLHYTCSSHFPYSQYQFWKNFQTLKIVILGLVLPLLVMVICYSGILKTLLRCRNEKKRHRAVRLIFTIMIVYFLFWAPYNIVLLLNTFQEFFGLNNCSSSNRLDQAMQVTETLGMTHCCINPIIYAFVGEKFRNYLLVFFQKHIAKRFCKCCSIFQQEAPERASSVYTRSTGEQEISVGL

IC50 [4] [µM] | IC50 [5] [µM] | IC50 [6] [µM] | clearance [7] [mL/min/kg] | half-life [7] [h] | bioavailability [7] [%] | Area Under a Curve (0-inf) [7] [µM·h] | Area Under a Curve (0-inf/0-last) [7] [µM·h] | Peak time [7] [h] | IC50 [8] [µM] | IC50 [9] [µM] | Structure (SMILES) | further results
> 50 | 28.3 | > 50 | 0.224 | 9.47 | 32.6 | 255.072 | 404.142 | 3.0 | > 50 | > 50 | CCCCOCCOc1ccc(-c2ccc(OC)c(/C=C/C(=O)Nc3ccc([S@+]([O-])Cc4c(C)ncn4CC)cc3)c2)cc1 [WX079] | IC50 [1]: 0.0058 µM; IC50 [2]: 0.0056 µM; Risk of inhibiting isoenzymes of human liver microsomal cytochrome P450 (conclusion in words) [3]: no risk on inhibiting five isoenzymes; Oral plasma system exposure (AUC0-inf) as multiple of the reference compound ([7]; oral, relative to Cenicriviroc): 12.6 times; Plasma clearance as percent of that of the reference compound ([7]; relative to Cenicriviroc): 14%
> 50 | 5.6 | > 50 | 1.57 | 5.48 | 20.4 | 31.344 | 31.956 | 4.0 | > 50 | > 50 | CCCCOCCOc1ccc(-c2ccc3c(c2)/C=C(/C(=O)Nc2ccc([S@@+]([O-])Cc4cncn4CCC)cc2)CCCN3CC(C)C)cc1 [(Cenicriviroc), Cenicriviroc, reference compound] | Inhibitory effect on CYP3A4 (conclusion in words) [5]: weak inhibitory effect; Area Under a Curve (0-inf) ([10]; intravenous injection 1 mg/kg): 2.766 µM·h; Area Under a Curve (0-inf/0-last) ([10]; oral 3 mg/kg): 0.424 µM·h; Peak time ([10]; oral 3 mg/kg): 2.0 h; clearance [10, 11]: 8.74 mL/min/kg; half-life [10, 11]: 5.37 h; bioavailability ([10]; male, plasma, oral 3 mg/kg vs intravenous 1 mg/kg): 5.11%
